Active and inactive are the calls of the source. No cut-off for these calls is given here.
Experiments:
[1] = molecular target: Myosin light chain kinase, smooth muscle (Homo sapiens) (UniProt Q15746); assay: MYLK DiscoveRx kinase panel; settings: Compound concentration 1.0 uM
[2] = molecular target: Serine/threonine-protein kinase Nek5 (Homo sapiens) (UniProt Q6P3R8); assay: NEK5 DiscoveRx kinase panel; settings: Compound concentration 1.0 uM
[3] = molecular target: 5-hydroxytryptamine receptor 1A (Homo sapiens) (UniProt P08908); assay: Serotonin (5-Hydroxytryptamine) 5-HT1A Eurofins-Panlabs radioligand binding assay; settings: Compound concentration 10.0 uM
[4] = molecular target: Protein-tyrosine kinase 6 (Homo sapiens) (UniProt Q13882); assay: BRK DiscoveRx kinase panel; settings: Compound concentration 1.0 uM
[5] = molecular target: Androgen receptor (Homo sapiens) (UniProt P10275); settings: Compound concentration 10.0 uM
HeLa = assay: HeLa (presence of 3 nM Paclitaxel) cell line Proliferation assay; type: functional, Homo sapiens; settings: time 4 day
[6] = molecular target: Fibroblast growth factor receptor 4 (Homo sapiens) (UniProt P22455); assay: FGFR4 DiscoveRx kinase panel; settings: Compound concentration 1.0 uM
[7] = molecular target: Glutamate receptor 2 (Homo sapiens) (UniProt P42262); settings: Rattus norvegicus; Compound concentration 10.0 uM
[8] = molecular target: Serine/threonine-protein kinase MAK (Homo sapiens) (UniProt P20794); assay: MAK DiscoveRx kinase panel; settings: Compound concentration 1.0 uM
Chain of Serine/threonine-protein kinase MAK (Homo sapiens) (P20794 whole entry): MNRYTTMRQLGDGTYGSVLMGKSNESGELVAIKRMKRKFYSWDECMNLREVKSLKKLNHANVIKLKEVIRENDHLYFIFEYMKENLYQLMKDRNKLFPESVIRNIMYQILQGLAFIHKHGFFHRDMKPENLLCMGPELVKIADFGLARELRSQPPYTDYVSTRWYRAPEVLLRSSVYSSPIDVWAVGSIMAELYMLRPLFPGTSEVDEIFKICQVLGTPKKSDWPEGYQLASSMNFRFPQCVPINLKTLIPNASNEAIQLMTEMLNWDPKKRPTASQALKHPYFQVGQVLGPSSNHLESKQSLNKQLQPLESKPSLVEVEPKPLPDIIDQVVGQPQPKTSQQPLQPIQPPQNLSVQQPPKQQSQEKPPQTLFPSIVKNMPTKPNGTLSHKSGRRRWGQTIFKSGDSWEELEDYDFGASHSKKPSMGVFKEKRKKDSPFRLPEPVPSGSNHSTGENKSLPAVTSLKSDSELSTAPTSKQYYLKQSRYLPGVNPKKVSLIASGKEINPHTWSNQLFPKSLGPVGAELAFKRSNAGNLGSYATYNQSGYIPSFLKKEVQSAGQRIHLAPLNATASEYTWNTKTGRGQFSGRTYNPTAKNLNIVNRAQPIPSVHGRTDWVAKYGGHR

[9] = molecular target: 5'-AMP-activated protein kinase catalytic subunit alpha-1 (Homo sapiens) (UniProt Q13131); assay: AMPK-alpha1 DiscoveRx kinase panel; settings: Compound concentration 1.0 uM
Chain of 5'-AMP-activated protein kinase catalytic subunit alpha-1 (Homo sapiens) (Q13131 whole entry, looked up): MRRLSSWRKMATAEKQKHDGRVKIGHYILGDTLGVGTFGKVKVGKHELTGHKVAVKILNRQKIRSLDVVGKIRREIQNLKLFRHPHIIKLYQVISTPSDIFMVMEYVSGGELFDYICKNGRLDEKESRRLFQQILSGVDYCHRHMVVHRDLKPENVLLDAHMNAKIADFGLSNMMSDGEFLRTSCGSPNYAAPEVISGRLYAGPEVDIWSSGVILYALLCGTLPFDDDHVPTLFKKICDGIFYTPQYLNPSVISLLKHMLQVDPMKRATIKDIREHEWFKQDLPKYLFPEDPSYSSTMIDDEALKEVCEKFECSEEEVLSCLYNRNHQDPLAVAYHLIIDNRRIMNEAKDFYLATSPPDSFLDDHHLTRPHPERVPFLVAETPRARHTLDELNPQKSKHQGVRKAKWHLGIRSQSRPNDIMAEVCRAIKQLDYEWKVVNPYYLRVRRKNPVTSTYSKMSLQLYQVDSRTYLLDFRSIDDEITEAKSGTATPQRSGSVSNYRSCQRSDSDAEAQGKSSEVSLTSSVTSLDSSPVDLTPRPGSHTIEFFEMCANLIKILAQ

[10] = molecular target: Mitogen-activated protein kinase 14 (Homo sapiens) (UniProt Q16539); assay: p38-alpha DiscoveRx kinase panel; settings: Compound concentration 1.0 uM
Chain of Mitogen-activated protein kinase 14 (Homo sapiens) (Q16539 whole entry): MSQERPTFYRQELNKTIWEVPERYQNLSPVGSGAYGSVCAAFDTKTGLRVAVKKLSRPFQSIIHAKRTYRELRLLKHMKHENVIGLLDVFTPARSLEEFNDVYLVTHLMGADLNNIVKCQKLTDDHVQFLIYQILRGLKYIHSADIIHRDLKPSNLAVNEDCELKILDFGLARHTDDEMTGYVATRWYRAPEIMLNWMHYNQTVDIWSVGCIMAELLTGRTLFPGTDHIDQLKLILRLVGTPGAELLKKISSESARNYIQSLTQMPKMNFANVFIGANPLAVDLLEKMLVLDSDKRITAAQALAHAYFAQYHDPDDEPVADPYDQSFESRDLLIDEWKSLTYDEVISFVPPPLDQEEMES

[11] = molecular target: Mitogen-activated protein kinase 3 (Homo sapiens) (UniProt P27361); assay: ERK1 DiscoveRx kinase panel; settings: Compound concentration 1.0 uM
[12] = molecular target: Non-receptor tyrosine-protein kinase TYK2 (Homo sapiens) (UniProt P29597); assay: TYK2(JH1domain-catalytic) DiscoveRx kinase panel; settings: Compound concentration 1.0 uM
Chain of Non-receptor tyrosine-protein kinase TYK2 (Homo sapiens) (P29597 whole entry): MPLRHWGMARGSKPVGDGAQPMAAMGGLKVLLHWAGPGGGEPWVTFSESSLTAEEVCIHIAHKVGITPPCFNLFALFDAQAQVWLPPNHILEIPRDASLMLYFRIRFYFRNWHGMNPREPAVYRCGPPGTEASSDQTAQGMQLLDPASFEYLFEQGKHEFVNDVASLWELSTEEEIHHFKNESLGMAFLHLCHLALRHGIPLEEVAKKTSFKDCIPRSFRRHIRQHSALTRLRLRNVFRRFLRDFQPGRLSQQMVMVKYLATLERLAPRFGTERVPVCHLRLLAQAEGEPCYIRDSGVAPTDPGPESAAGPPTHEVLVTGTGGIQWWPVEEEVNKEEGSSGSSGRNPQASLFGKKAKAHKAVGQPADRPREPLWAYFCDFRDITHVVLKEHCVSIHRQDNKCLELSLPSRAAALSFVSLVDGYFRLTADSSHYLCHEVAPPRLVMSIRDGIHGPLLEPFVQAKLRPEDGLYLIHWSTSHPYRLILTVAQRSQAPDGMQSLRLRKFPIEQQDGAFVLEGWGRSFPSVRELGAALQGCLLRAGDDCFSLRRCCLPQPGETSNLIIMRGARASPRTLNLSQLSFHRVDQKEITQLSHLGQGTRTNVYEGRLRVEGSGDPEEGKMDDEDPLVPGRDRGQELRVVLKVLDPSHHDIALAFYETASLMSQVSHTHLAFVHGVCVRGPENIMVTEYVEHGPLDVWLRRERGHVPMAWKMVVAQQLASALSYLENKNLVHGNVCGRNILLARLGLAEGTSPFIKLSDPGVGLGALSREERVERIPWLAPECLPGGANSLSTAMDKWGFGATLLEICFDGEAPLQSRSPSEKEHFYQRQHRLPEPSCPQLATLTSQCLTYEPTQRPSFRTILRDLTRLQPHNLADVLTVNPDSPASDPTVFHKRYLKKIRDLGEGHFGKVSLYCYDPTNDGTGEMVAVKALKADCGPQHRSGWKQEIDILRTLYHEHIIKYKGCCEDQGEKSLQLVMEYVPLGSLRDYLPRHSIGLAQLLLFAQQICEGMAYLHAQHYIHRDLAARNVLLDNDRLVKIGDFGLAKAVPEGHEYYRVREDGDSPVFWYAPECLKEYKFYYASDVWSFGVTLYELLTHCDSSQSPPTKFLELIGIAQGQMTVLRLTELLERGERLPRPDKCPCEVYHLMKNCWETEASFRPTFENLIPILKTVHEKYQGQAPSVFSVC

[13] = molecular target: Angiopoietin-1 receptor (Homo sapiens) (UniProt Q02763); assay: TIE2 DiscoveRx kinase panel; settings: Compound concentration 1.0 uM
[14] = molecular target: Receptor-interacting serine/threonine-protein kinase 2 (Homo sapiens) (UniProt O43353); assay: RIPK2 DiscoveRx kinase panel; settings: Compound concentration 1.0 uM
[15] = molecular target: Mitotic checkpoint serine/threonine-protein kinase BUB1 (Homo sapiens, UniProt O43683); assay: ePCA binding competition (equilibrium binding assay)
[16] = molecular target: Mitogen-activated protein kinase kinase kinase 9 (Homo sapiens) (UniProt P80192); assay: MLK1 DiscoveRx kinase panel; settings: Compound concentration 1.0 uM
[17] = molecular target: Beta-2 adrenergic receptor (Homo sapiens) (UniProt P07550); settings: Compound concentration 10.0 uM
[18] = molecular target: Serine/threonine-protein kinase 24 (Homo sapiens) (UniProt Q9Y6E0); assay: MST3 DiscoveRx kinase panel; settings: Compound concentration 1.0 uM
[19] = molecular target: Serine/threonine-protein kinase TNNI3K (Homo sapiens) (UniProt Q59H18); assay: TNNI3K DiscoveRx kinase panel; settings: Compound concentration 1.0 uM
[20] = molecular target: Serine/threonine-protein kinase MARK1 (Homo sapiens) (UniProt Q9P0L2); assay: MARK1 DiscoveRx kinase panel; settings: Compound concentration 1.0 uM
[21] = molecular target: Serine/threonine-protein kinase OSR1 (Homo sapiens) (UniProt O95747); assay: OSR1 DiscoveRx kinase panel; settings: Compound concentration 1.0 uM
[22] = molecular target: Tyrosine-protein kinase Fyn (Homo sapiens) (UniProt P06241); assay: FYN DiscoveRx kinase panel; settings: Compound concentration 1.0 uM
[23] = molecular target: Phosphatidylinositol 4,5-bisphosphate 3-kinase catalytic subunit gamma isoform (Homo sapiens) (UniProt P48736); assay: PIK3CG DiscoveRx kinase panel; settings: Compound concentration 1.0 uM
[24] = molecular target: Glycogen synthase kinase-3 beta (Homo sapiens) (UniProt P49841); assay: GSK3B DiscoveRx kinase panel; settings: Compound concentration 1.0 uM
[25] = molecular target: Cyclin-dependent kinase 18 (Homo sapiens) (UniProt Q07002); assay: PCTK3 DiscoveRx kinase panel; settings: Compound concentration 1.0 uM
[26] = molecular target: Tyrosine-protein kinase TXK (Homo sapiens) (UniProt P42681); assay: TXK DiscoveRx kinase panel; settings: Compound concentration 1.0 uM
[27] = molecular target: Cysteinyl leukotriene receptor 1 (Homo sapiens) (UniProt Q9Y271); assay: Inhibition of Leukotriene, Cysteinyl CysLT1 at 10 µM in the Eurofins-Panlabs radioligand binding assay (Eurofins_assay_250460); design: ligand concentration 0.3 nM, non-specific ligand with concentration 0.3 µM Leukotriene D4, incubation time 30 min, incubation temperature 25 °C; settings: Compound concentration 10.0 uM
[28] = molecular target: Myotonin-protein kinase (Homo sapiens) (UniProt Q09013); assay: DMPK DiscoveRx kinase panel; settings: Compound concentration 1.0 uM
[29] = molecular target: Serine/threonine-protein kinase MRCK beta (Homo sapiens) (UniProt Q9Y5S2); assay: MRCKB DiscoveRx kinase panel; settings: Compound concentration 1.0 uM
[30] = molecular target: Myosin light chain kinase 2, skeletal/cardiac muscle (Homo sapiens) (UniProt Q9H1R3); assay: MYLK2 DiscoveRx kinase panel; settings: Compound concentration 1.0 uM
[31] = molecular target: Calcium/calmodulin-dependent protein kinase type II subunit delta (Homo sapiens) (UniProt Q13557); assay: CAMK2D DiscoveRx kinase panel; settings: Compound concentration 1.0 uM
[32] = molecular target: Glycogen synthase kinase-3 alpha (Homo sapiens, UniProt P49840); assay: GSK3A DiscoveRx kinase panel
[33] = molecular target: cGMP-dependent protein kinase 2 (Homo sapiens) (UniProt Q13237); assay: PRKG2 DiscoveRx kinase panel; settings: Compound concentration 1.0 uM
[34] = molecular target: Cyclin-dependent kinase 5 (Homo sapiens) (UniProt Q00535); assay: CDK5 DiscoveRx kinase panel; settings: Compound concentration 1.0 uM
Chain of Cyclin-dependent kinase 5 (Homo sapiens) (Q00535 whole entry, looked up): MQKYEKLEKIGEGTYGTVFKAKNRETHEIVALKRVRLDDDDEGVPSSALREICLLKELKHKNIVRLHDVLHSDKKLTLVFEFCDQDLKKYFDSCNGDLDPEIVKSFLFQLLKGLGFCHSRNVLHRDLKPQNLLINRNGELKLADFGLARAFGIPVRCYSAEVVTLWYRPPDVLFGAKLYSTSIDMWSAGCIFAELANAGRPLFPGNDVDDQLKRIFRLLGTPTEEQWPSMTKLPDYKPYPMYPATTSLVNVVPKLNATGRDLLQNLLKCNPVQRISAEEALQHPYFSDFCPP

[35] = molecular target: Prostaglandin G/H synthase 2 (Homo sapiens) (UniProt P35354); assay: Cyclooxygenase COX-2 Eurofins-Panlabs enzyme assay; design: substrate with concentration; settings: Compound concentration 10.0 uM
Chain of Prostaglandin G/H synthase 2 (Homo sapiens) (P35354 whole entry): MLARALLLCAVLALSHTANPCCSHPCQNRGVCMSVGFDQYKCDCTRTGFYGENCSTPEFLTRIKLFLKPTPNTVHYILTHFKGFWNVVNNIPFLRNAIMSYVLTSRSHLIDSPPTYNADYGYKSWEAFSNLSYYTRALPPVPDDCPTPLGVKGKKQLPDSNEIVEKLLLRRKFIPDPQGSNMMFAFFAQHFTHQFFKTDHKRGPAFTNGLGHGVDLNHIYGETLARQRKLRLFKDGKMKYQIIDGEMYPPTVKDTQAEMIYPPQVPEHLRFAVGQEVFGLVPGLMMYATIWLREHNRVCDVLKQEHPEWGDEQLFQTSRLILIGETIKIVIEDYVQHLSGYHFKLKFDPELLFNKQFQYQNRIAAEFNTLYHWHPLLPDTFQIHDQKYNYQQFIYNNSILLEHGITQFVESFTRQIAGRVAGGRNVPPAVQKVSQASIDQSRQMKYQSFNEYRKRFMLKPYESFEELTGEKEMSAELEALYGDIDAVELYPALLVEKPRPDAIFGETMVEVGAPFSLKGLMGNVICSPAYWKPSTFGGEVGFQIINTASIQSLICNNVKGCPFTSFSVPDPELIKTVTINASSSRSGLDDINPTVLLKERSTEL

[36] = molecular target: cAMP-dependent protein kinase catalytic subunit beta (Homo sapiens) (UniProt P22694); assay: PKAC-beta DiscoveRx kinase panel; settings: Compound concentration 1.0 uM
[37] = molecular target: Mitogen-activated protein kinase kinase kinase 15 (Homo sapiens) (UniProt Q6ZN16); assay: MAP3K15 DiscoveRx kinase panel; settings: Compound concentration 1.0 uM
[38] = molecular target: Ankyrin repeat and protein kinase domain-containing protein 1 (Homo sapiens) (UniProt Q8NFD2); assay: ANKK1 DiscoveRx kinase panel; settings: Compound concentration 1.0 uM
MAO-A = MAO-A (Homo sapiens, UniProt P21397); assay: Inhibition of Monoamine Oxidase MAO-A at compound concentration of 10.0 uM in the Eurofins-Panlabs enzyme assay (Eurofins_assay_140010); design: substrate with concentration 50 uM Kynuramine, incubation time 60 min, incubation temperature 37 C; settings: human recombinant MAO-A expressed in insect Hi5 cells, probe Kynuramine (50 uM), compound concentration 10 uM
Chain of MAO-A (P21397 whole entry): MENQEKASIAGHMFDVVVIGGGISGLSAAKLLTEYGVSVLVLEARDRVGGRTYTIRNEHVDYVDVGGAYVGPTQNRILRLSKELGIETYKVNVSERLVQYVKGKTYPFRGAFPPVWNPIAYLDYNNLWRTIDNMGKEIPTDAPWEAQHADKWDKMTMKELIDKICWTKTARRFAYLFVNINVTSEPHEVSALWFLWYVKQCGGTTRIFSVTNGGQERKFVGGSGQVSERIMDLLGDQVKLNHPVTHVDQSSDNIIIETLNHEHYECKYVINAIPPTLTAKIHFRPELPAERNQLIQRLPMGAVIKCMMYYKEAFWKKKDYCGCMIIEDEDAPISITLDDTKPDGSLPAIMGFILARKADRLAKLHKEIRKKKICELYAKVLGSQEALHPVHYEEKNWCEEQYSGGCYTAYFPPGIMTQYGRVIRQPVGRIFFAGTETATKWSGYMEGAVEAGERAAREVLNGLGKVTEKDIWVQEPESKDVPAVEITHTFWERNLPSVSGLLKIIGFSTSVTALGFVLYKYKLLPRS

[39] = molecular target: Serine/threonine-protein kinase PLK4 (Homo sapiens) (UniProt O00444); assay: PLK4 DiscoveRx kinase panel; settings: Compound concentration 1.0 uM
[40] = molecular target: Tyrosine-protein kinase BTK (Homo sapiens) (UniProt Q06187); assay: BTK DiscoveRx kinase panel; settings: Compound concentration 1.0 uM
[41] = molecular target: Serine/threonine-protein kinase 36 (Homo sapiens) (UniProt Q9NRP7); assay: STK36 DiscoveRx kinase panel; settings: Compound concentration 1.0 uM
[42] = molecular target: Non-receptor tyrosine-protein kinase TNK1 (Homo sapiens) (UniProt Q13470); assay: TNK1 DiscoveRx kinase panel; settings: Compound concentration 1.0 uM
[43] = molecular target: Serine/threonine-protein kinase ICK (Homo sapiens) (UniProt Q9UPZ9); assay: ICK DiscoveRx kinase panel; settings: Compound concentration 1.0 uM
Rattus norvegicus = species: Rattus norvegicus; assay: GABAA, Ro-15-1788, Hippocampus Eurofins-Panlabs radioligand binding assay; design: ligand concentration 1 nM; settings: Compound concentration 10.0 uM
[44] = molecular target: D(1A) dopamine receptor (Homo sapiens) (UniProt P21728); settings: Compound concentration 10.0 uM
[45] = PHKG2 DiscoveRx kinase panel; settings: Homo sapiens; Compound concentration 1.0 uM

Chain of Serine/threonine-protein kinase Nek5 (Homo sapiens) (Q6P3R8 whole entry): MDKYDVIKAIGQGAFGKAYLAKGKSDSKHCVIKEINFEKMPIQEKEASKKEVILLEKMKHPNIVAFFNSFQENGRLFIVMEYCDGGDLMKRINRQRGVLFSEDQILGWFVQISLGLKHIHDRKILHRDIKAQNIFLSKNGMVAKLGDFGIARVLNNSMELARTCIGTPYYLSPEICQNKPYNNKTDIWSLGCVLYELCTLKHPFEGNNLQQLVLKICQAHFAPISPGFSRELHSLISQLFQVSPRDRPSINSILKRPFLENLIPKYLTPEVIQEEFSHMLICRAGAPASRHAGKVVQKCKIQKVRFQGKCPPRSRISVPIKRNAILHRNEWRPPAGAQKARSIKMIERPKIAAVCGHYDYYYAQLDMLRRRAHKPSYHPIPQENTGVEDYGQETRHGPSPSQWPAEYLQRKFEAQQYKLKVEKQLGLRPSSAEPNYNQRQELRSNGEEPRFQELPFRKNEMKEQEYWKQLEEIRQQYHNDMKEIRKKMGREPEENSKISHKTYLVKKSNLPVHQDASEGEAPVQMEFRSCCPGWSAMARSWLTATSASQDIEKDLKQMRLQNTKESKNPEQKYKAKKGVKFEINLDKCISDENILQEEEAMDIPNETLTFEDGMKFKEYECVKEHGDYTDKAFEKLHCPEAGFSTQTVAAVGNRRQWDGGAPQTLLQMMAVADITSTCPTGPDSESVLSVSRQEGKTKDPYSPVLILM

COc1cnccc1Nc1nc(-c2nn(Cc3c(F)cc(OCCO)cc3F)c3ccccc23)ncc1OC
residual activity [1]: 100% | residual activity [2]: 88% | inhibition [3]: 0% | residual activity [4]: 91% | inhibition [5]: 9% | Cell Proliferation IC50 (HeLa): 63 nM | residual activity [6]: 98% | inhibition [7]: 7% | residual activity [8]: 73% | residual activity [9]: 100% | residual activity [10]: 100% | residual activity [11]: 88% | residual activity [12]: 100% | residual activity [13]: 41% | residual activity [14]: 82% | IC50 [15]: 1 nM (active) | residual activity [16]: 92% | inhibition [17]: 10% | residual activity [18]: 100% | residual activity [19]: 97% | residual activity [20]: 97% | residual activity [21]: 100% | residual activity [22]: 89% | residual activity [23]: 80% | residual activity [24]: 100% | residual activity [25]: 76% | residual activity [26]: 64% | inhibition [27]: 32% | residual activity [28]: 100% | residual activity [29]: 98% | residual activity [30]: 69% | residual activity [31]: 100% | Kd [32]: > 30000 nM | residual activity ([32]; Compound concentration 1.0 uM): 26% | residual activity [33]: 95% | residual activity [34]: 81% | inhibition [35]: -9% | residual activity [36]: 100% | residual activity [37]: 87% | residual activity [38]: 100% | inhibition at 60 min, 10 µM (MAO-A): 7% (not active) | residual activity [39]: 100% | residual activity [40]: 100% | residual activity [41]: 68% | residual activity [42]: 62% | residual activity [43]: 84% | inhibition (Rattus norvegicus): 22% | inhibition [44]: 5% | residual activity [45]: 98%

From ChEMBL document CHEMBL5058649, “Data for DCP probe BAY 1816032” (2022)
